What was measured:
Test in all cases: relative viability (nuclei count vs DMSO), 5 days (fraction); higher = more cells survive
[1] = compound: CCc1c2c(nc3ccc(OC(=O)N4CCC(N5CCCCC5)CC4)cc13)-c1cc3c(c(=O)n1C2)COC(=O)[C@]3(O)CC [Irinotecan] + Cc1cc(Nc2cc(N3CCN(C)CC3)nc(Sc3ccc(NC(=O)C4CC4)cc3)n2)n[nH]1 [Tozasertib] (partner 0.1 µM)
Summary of the method: (§1)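 Dosing by pin tool came one day after lung cancer cell lines were seeded in 1536-well plates, using either one drug or a fixed anchor-drug dose plus five library-drug doses (not always all listed) in √10 steps. After 5 days, nuclei were counted on 4× images. Relative viability is treated-well nuclei count divided by vehicle-well nuclei count, and values are medians of duplicate plates.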

[2] = compound: Cn1cc(-c2cnc3ccc4ccc(CS(=O)(=O)NCc5ccccn5)cc4c(=O)c3c2)cn1 [MK-8033] + CC(=O)c1c(C)c2cnc(Nc3ccc(N4CCNCC4)cn3)nc2n(C2CCCC2)c1=O [Palbociclib] (partner 0.5 µM)
Summary of the method: as §1

[3] = compound: Cn1cc(-c2cnc3ccc4ccc(CS(=O)(=O)NCc5ccccn5)cc4c(=O)c3c2)cn1 [MK-8033] + Cc1nc(NC(=O)N2CCC[C@H]2C(N)=O)sc1-c1ccnc(C(C)(C)C(F)(F)F)c1 [Alpelisib] (partner 2 µM)
Summary of the method: as §1

[4] = compound: Cn1cc(-c2cnc3ccc4ccc(CS(=O)(=O)NCc5ccccn5)cc4c(=O)c3c2)cn1 [MK-8033] + Nc1ncn([C@H]2C[C@H](O)[C@@H](CO)O2)c(=O)n1 [Decitabine] (partner 2 µM)
Summary of the method: as §1

| Cell Line | relative viability ([1]; first compound 0.6325 µM) | relative viability ([1]; first compound 2 µM) | relative viability ([1]; first compound 6.325 µM) | relative viability ([1]; first compound 20 µM) | relative viability ([2]; first compound 0.02 µM) | relative viability ([2]; first compound 0.06325 µM) | relative viability ([2]; first compound 0.2 µM) | relative viability ([2]; first compound 0.6325 µM) | relative viability ([2]; first compound 2 µM) | relative viability ([3]; first compound 0.02 µM) | relative viability ([3]; first compound 0.06325 µM) | relative viability ([3]; first compound 0.2 µM) | relative viability ([3]; first compound 0.6325 µM) | relative viability ([3]; first compound 2 µM) | relative viability ([4]; first compound 0.02 µM) | relative viability ([4]; first compound 0.06325 µM) | relative viability ([4]; first compound 0.2 µM) | relative viability ([4]; first compound 0.6325 µM) | relative viability ([4]; first compound 2 µM) |
| --- | --- | --- | --- | --- | --- | --- | --- | --- | --- | --- | --- | --- | --- | --- | --- | --- | --- | --- | --- |
| NCI-H322M | 0.461 | 0.511 | 0.411 | 0.202 | 0.531 | 0.443 | 0.45 | 0.49 | 0.433 | 0.697 | 0.77 | 0.801 | 0.792 | 0.839 | 0.74 | 0.663 | 0.742 | 0.762 | 0.747 |
| NCI-H358 | 0.104 | 0.141 | 0.145 | 0.128 | 0.144 | 0.129 | 0.128 | 0.136 | 0.151 | 0.794 | 0.755 | 0.725 | 0.797 | 0.772 | 0.205 | 0.192 | 0.211 | 0.261 | 0.198 |
| NCI-H1395 | 0.607 | 0.716 | 0.594 | 0.494 | 0.499 | 0.588 | 0.654 | 0.612 | 0.624 | 1.2 | 1 | 1.16 | 1.13 | 1.05 | 0.68 | 0.701 | 0.71 | 0.7 | 0.693 |
| NCI-H1993 | 0.582 | 0.71 | 0.639 | 0.644 | 0.563 | 0.566 | 0.453 | 0.649 | 0.424 | 0.612 | 0.611 | 0.649 | 0.714 | 0.675 | 0.488 | 0.624 | 0.557 | 0.563 | 0.546 |
| COR-L23 | 0.161 | 0.225 | 0.176 | 0.105 | 0.239 | 0.29 | 0.27 | 0.304 | 0.326 | 0.71 | 0.864 | 0.74 | 0.828 | 0.645 | 0.447 | 0.361 | 0.465 | 0.455 | 0.443 |
| NCI-H2347 | 0.441 | 0.502 | 0.546 | 0.441 | 0.368 | 0.408 | 0.428 | 0.441 | 0.464 | 1.05 | 0.991 | 1.02 | 1.03 | 0.975 | 0.548 | 0.608 | 0.571 | 0.54 | 0.685 |
| LU99A | 0.257 | 0.223 | 0.153 | 0.225 | 0.414 | 0.343 | 0.398 | 0.409 | 0.39 | 0.629 | 0.489 | 0.523 | 0.464 | 0.412 | 0.853 | 0.901 | 0.849 | 0.951 | 0.883 |
| COR-L 105 | 0.346 | 0.373 | 0.458 | 0.273 | 0.429 | 0.388 | 0.394 | 0.464 | 0.418 | 0.822 | 1.07 | 0.962 | 0.928 | 0.733 | 0.659 | 0.556 | 0.619 | 0.689 | 0.691 |

From the supplement of paper PMC10307832
